#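 Following 48 hours of exposure in 96-well plates, responses at five concentrations were used to interpolate endpoints linearly. Abbreviation: GI50, concentration required for 50% inhibition of growth. TGI marks complete inhibition of growth.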
# What was measured:
# Test in all cases: DTP human tumour cell line panel, 48 h
# [1] = system: MCF7 breast
# [2] = system: MALME-3M melanoma
# [3] = system: MOLT-4 leukemia
# [4] = system: SK-OV-3 ovarian
# [5] = system: IGROV1 ovarian
# [6] = system: SF-295 CNS
# [7] = system: RPMI-8226 leukemia
# [8] = system: 786-0 renal
# [9] = system: SW-620 colon
# [10] = system: OVCAR-3 ovarian
# [11] = system: T-47D breast
# [12] = system: SR leukemia
# [13] = system: NCI-H522 lung
# [14] = system: PC-3 prostate
# [15] = system: DU-145 prostate
# [16] = system: MDA-MB-435
# [17] = system: COLO 205 colon
# [18] = system: OVCAR-4 ovarian
# [19] = system: M14 melanoma
# [20] = system: HL-60(TB) leukemia
# [21] = system: U251 CNS
# [22] = system: OVCAR-8 ovarian
# [23] = system: SNB-19 CNS
# [24] = system: A498 renal
# [25] = system: NCI-H226 lung
# [26] = system: HCT-116 colon
# [27] = system: SN12C renal
# [28] = system: OVCAR-5 ovarian
# [29] = system: SK-MEL-5 melanoma
# [30] = system: HCT-15 colon
# [31] = system: SK-MEL-28 melanoma
# [32] = system: SF-268 CNS
# [33] = system: HCC-2998 colon
# [34] = system: SF-539 CNS
# [35] = system: BT-549 breast
# [36] = system: HOP-92 NSCLC
# [37] = system: NCI/ADR-RES ovarian
# [38] = system: TK-10 renal
# [39] = system: CAKI-1 renal
# [40] = system: EKVX NSCLC
# [41] = system: HOP-62 NSCLC
# [42] = system: NCI-H23 lung
# [43] = system: ACHN renal
# [44] = system: NCI-H460 lung
# [45] = system: CCRF-CEM leukemia
# [46] = system: SNB-75 CNS
# [47] = system: HS 578T breast
# [48] = system: UACC-62 melanoma
# [49] = system: MDA-MB-231 breast
# [50] = system: RXF 393 renal
# [51] = system: KM12 colon
# [52] = system: K-562 leukemia
# [53] = system: A549 NSCLC
# [54] = system: HT29 colon
# [55] = system: UACC-257 melanoma
# [56] = system: SK-MEL-2 melanoma
smiles,measurement,setting,value
O=C1c2ccc3c4c(ccc(c24)C(=O)N1CCCNCc1ccccc1Cl)C(=O)N(CCCNCc1ccccc1Cl)C3=O,GI50,[1],100 nM
same,TGI,[1],231 nM
same,GI50,[2],315 nM
same,TGI,[2],1050 nM
same,GI50,[3],168 nM
same,TGI,[3],722 nM
same,GI50,[4],862 nM
same,TGI,[4],3180 nM
same,GI50,[5],275 nM
same,TGI,[5],1630 nM
same,GI50,[6],494 nM
same,TGI,[6],1220 nM
same,GI50,[7],390 nM
same,TGI,[7],1860 nM
same,GI50,[8],610 nM
same,TGI,[8],1430 nM
same,GI50,[9],128 nM
same,TGI,[9],361 nM
same,GI50,[10],132 nM
same,TGI,[10],345 nM
same,GI50,[11],787 nM
same,TGI,[11],2170 nM
same,GI50,[12],151 nM
same,TGI,[12],6680 nM
same,GI50,[13],293 nM
same,TGI,[13],974 nM
same,GI50,[14],268 nM
same,TGI,[14],1560 nM
same,GI50,[15],261 nM
same,TGI,[15],860 nM
same,GI50,[16],120 nM
same,TGI,[16],332 nM
same,GI50,[17],89.6 nM
same,TGI,[17],166 nM
same,GI50,[18],89.1 nM
same,TGI,[18],182 nM
same,GI50,[19],200 nM
same,TGI,[19],685 nM
same,GI50,[20],904 nM
same,TGI,[20],2110 nM
same,GI50,[21],218 nM
same,TGI,[21],910 nM
same,GI50,[22],148 nM
same,TGI,[22],533 nM
same,GI50,[23],314 nM
same,TGI,[23],987 nM
same,GI50,[24],712 nM
same,TGI,[24],1430 nM
same,GI50,[25],659 nM
same,TGI,[25],1490 nM
same,GI50,[26],126 nM
same,TGI,[26],344 nM
same,GI50,[27],99.5 nM
same,TGI,[27],206 nM
same,GI50,[28],592 nM
same,TGI,[28],1670 nM
same,GI50,[29],399 nM
same,TGI,[29],1020 nM
same,GI50,[30],148 nM
same,TGI,[30],620 nM
same,GI50,[31],776 nM
same,TGI,[31],1480 nM
same,GI50,[32],477 nM
same,TGI,[32],1490 nM
same,GI50,[33],191 nM
same,TGI,[33],651 nM
same,GI50,[34],669 nM
same,TGI,[34],1380 nM
same,GI50,[35],870 nM
same,TGI,[35],1800 nM
same,GI50,[36],728 nM
same,TGI,[36],2370 nM
same,GI50,[37],142 nM
same,TGI,[37],456 nM
same,GI50,[38],179 nM
same,TGI,[38],724 nM
same,GI50,[39],317 nM
same,TGI,[39],1460 nM
same,GI50,[40],481 nM
same,TGI,[40],1160 nM
same,GI50,[41],277 nM
same,TGI,[41],1020 nM
same,GI50,[42],217 nM
same,TGI,[42],860 nM
same,GI50,[43],206 nM
same,TGI,[43],859 nM
same,GI50,[44],212 nM
same,TGI,[44],817 nM
same,GI50,[45],215 nM
same,TGI,[45],50000 nM
same,GI50,[46],716 nM
same,TGI,[46],1470 nM
same,GI50,[47],984 nM
same,TGI,[47],11900 nM
same,GI50,[48],671 nM
same,TGI,[48],1430 nM
same,GI50,[49],250 nM
same,TGI,[49],2200 nM
same,GI50,[50],121 nM
same,TGI,[50],366 nM
same,GI50,[51],170 nM
same,TGI,[51],637 nM
same,GI50,[52],183 nM
same,TGI,[52],1120 nM
same,GI50,[53],230 nM
same,TGI,[53],833 nM
same,GI50,[54],123 nM
same,TGI,[54],335 nM
same,GI50,[55],125 nM
same,TGI,[55],334 nM
same,GI50,[56],415 nM
same,TGI,[56],1280 nM

# From PubChem BioAssay (NCI)
